Experimental data from ChEMBL document CHEMBL4251592, “Recent advances in microtubule-stabilizing agents” (Eur J Med Chem, 2018).
Values after ≈ are worked out from the molar mass of the structure shown.

What was measured:
SKM-1 = test: Cytotoxicity against human SKM1 cells incubated for 48 hrs by SRB assay; type: functional, cell-based; settings: SKM-1, 48 h
U-937 = test: Cytotoxicity against human U937 cells incubated for 48 hrs by SRB assay; type: functional, cell-based; settings: U-937, 48 h
SF-539 = test: Growth inhibition of human SF539 cells incubated for 48 hrs by SRB assay; type: functional; settings: SF-539, 48 h
K562 = test: Growth inhibition of human K562 cells incubated for 48 hrs by SRB assay; type: functional; settings: K562, 48 h
HCC 2998 = test: Growth inhibition of human HCC2998 cells incubated for 48 hrs by SRB assay; type: functional; settings: HCC 2998, 48 h
HL-60 = test: Growth inhibition of human HL60 cells incubated for 48 hrs by SRB assay; type: functional; settings: HL-60, 48 h

Q: `C=C1C[C@@H]2C/C=C/C(=O)C/C(C)=C\C=C\C(=O)O[C@H]([C@H](O)NC(=O)/C=C\C=C\C)C/C(C)=C/[C@H](C1)O2` [ZAMPANOLIDE] was tested. Which IC50 (SKM-1) did it give?
A: 1.1 to 2.9 nM

Q: And the IC50 (U-937)?
A: 1.1 to 2.9 nM

Q: How did the GI50 (SF-539) turn out when `C=C1C[C@@H]2C/C=C/C(=O)C/C(C)=C\C=C\C(=O)O[C@H](C=O)C/C(C)=C/[C@H](C1)O2` was run?
A: 0.025 to 0.099 µg/mL (≈ 0.065 to 0.257 µM)

Q: And the GI50 (K562)?
A: 0.025 to 0.099 µg/mL (≈ 0.065 to 0.257 µM)

Q: What about the GI50 (HCC 2998) of the same compound?
A: 0.025 to 0.099 µg/mL (≈ 0.065 to 0.257 µM)

Q: And the GI50 (HL-60)?
A: 0.025 to 0.099 µg/mL (≈ 0.065 to 0.257 µM)
